According to patent US12679824B2 (Hoffmann-La Roche Inc., priority 2020, dated 2026):

Test system: Acinetobacter baumannii ATCC17961
Experiment: 90% Growth Inhibitory Concentration (IC90) determination, antimicrobial susceptibility testing
Type: cell-based
Settings: Acinetobacter baumannii, ATCC17961, 16 h, Acinetobacter baumannii ATCC17961; Iso-Sensitest broth; growth by optical density at 600 nm over 16h; concentration inhibiting 90% of the growth; read-out: ATCC 17961 IC90
Experimental: Antimicrobial Susceptibility Testing:
90% Growth Inhibitory Concentration (IC90) Determination
The in vitro antimicrobial activity of the compounds was determined according to the following procedure:
The assay used a 10-points Iso-Sensitest broth medium to measure quantitatively the in vitro activity of the compounds against Acinetobacter baumannii ATCC17961.
Stock compounds in DMSO were serially twofold diluted (e.g. range from 50 to 0.097 μM final concentration) in 384 wells microtiter plates and inoculated with 49 μl the bacterial suspension in Iso-Sensitest medium to have a final cell concentration of ~5×10^(5) CFU/ml in a final volume/well of 50 ul/well. Microtiter plates were incubated at 35±2° C.
Bacterial cell growth was determined with the measurement of optical density at λ=600 nm each 20 minutes over a time course of 16h. Growth inhibition was calculated during the logarithmic growth of the bacterial cells with determination of the concentration inhibiting 50% (IC50) and 90% (IC90) of the growth.
Table 1 provides the 90% growth inhibitory concentrations (IC90) in micromoles per liter of the compounds of present invention obtained against the strain Acinetobacter baumannii ATCC17961.

Compound | IC90
CNc1ccc(-n2cc(-c3cnc(C(=O)Nc4ccc(C(=O)N5CCN(C(=O)CN6CCC(O)C6)CC5)c(Cl)c4)n3C)c(C(F)(F)F)n2)nc1 (stereo not shown) [Example D5, N-[3-chloro-4-[4-[2-(3-hydroxypyrrolidin-1-yl)acetyl]piperazine-1-carbonyl]phenyl]-1-methyl-5-[1-[5-(methylamino)-2-pyridyl]-3-(trifluoromethyl)pyrazol-4-yl]imidazole-2-carboxamide] | 310 nM
COc1ccc(-n2cc(-c3cnc(C(=O)Nc4ccc(C(=O)N5CCN(C(=O)C6CCNCC6)CC5)c(Cl)c4)n3C)c(C(F)(F)F)n2)nc1 [Example A13, N-[3-chloro-4-[4-(piperidine-4-carbonyl)piperazine-1-carbonyl]phenyl]-5-[1-(5-methoxy-2-pyridyl)-3-(trifluoromethyl)pyrazol-4-yl]-1-methyl-imidazole-2-carboxamide] | 210 nM
Cn1c(-c2cn(-c3ccc(N)cn3)nc2C(F)(F)F)cnc1C(=O)Nc1ccc(C(=O)N2CCN(C(=O)C3(O)CCNCC3)CC2)c(Cl)c1 [Example C4, 5-[1-(5-amino-2-pyridyl)-3-(trifluoromethyl)pyrazol-4-yl]-N-[3-chloro-4-[4-(4-hydroxypiperidine-4-carbonyl)piperazine-1-carbonyl]phenyl]-1-methyl-imidazole-2-carboxamide] | 310 nM
Cn1c(-c2cn(-c3ncc(N)cn3)nc2C(F)(F)F)cnc1C(=O)Nc1ccc(C(=O)N2CCN(C(=O)C3CCNCC3)CC2)c(Cl)c1 [Example A5, 5-[1-(5-aminopyrimidin-2-yl)-3-(trifluoromethyl)pyrazol-4-yl]-N-[3-chloro-4-[4-(piperidine-4-carbonyl)piperazine-1-carbonyl]phenyl]-1-methyl-imidazole-2-carboxamide] | 1000 nM
Cc1ccc(-n2cc(-c3cnc(C(=O)Nc4ccc(C(=O)N5CCN(C(=O)C6CCNCC6)CC5)c(Cl)c4)n3C)c(C(F)(F)F)n2)nc1 [Example E6, N-[3-chloro-4-[4-(piperidine-4-carbonyl)piperazine-1-carbonyl]phenyl]-1-methyl-5-[1-(5-methyl-2-pyridyl)-3-(trifluoromethyl)pyrazol-4-yl]imidazole-2-carboxamide] | 350 nM
CN(C)c1ccc(-n2cc(-c3cnc(C(=O)Nc4ccc(C(=O)N5CCN(C(=O)C6CCNCC6)CC5)c(Cl)c4)n3C)c(C(F)(F)F)n2)nn1 [Example B3, N-[3-chloro-4-[4-(piperidine-4-carbonyl)piperazine-1-carbonyl]phenyl]-5-[1-[6-(dimethylamino)pyridazin-3-yl]-3-(trifluoromethyl)pyrazol-4-yl]-1-methyl-imidazole-2-carboxamide] | 480 nM
CNc1ccc(-n2cc(-c3cnc(C(=O)Nc4ccc(C(=O)N5CCN(C(=O)C6CCNCC6)CC5)c(C)c4)n3C)c(C(F)(F)F)n2)nc1 [Example D6, 1-methyl-5-[1-[5-(methylamino)-2-pyridyl]-3-(trifluoromethyl)pyrazol-4-yl]-N-[3-methyl-4-[4-(piperidine-4-carbonyl)piperazine-1-carbonyl]phenyl]imidazole-2-carboxamide] | 370 nM
Cn1c(-c2cn(-c3ccc(Cl)cn3)nc2C(F)(F)F)cnc1C(=O)Nc1ccc(C(=O)N2CCN(C(=O)C3CCNCC3)CC2)c(Cl)c1 [Example A3, N-[3-chloro-4-[4-(piperidine-4-carbonyl)piperazine-1-carbonyl]phenyl]-5-[1-(5-chloro-2-pyridyl)-3-(trifluoromethyl)pyrazol-4-yl]-1-methyl-imidazole-2-carboxamide] | 370 nM
Cn1cnc(-n2cc(-c3cnc(C(=O)Nc4ccc(C(=O)N5CCN(C(=O)C6CCNCC6)CC5)c(Cl)c4)n3C)c(C(F)(F)F)n2)c1 [Example E4, N-[3-chloro-4-[4-(piperidine-4-carbonyl)piperazine-1-carbonyl]phenyl]-1-methyl-5-[1-(1-methylimidazol-4-yl)-3-(trifluoromethyl)pyrazol-4-yl]imidazole-2-carboxamide] | 680 nM
Cn1c(-c2cn(-c3nccc(OCCN)n3)nc2C(F)(F)F)cnc1C(=O)Nc1ccc(C(=O)N2CCN(C(=O)C3CCNCC3)CC2)c(Cl)c1 [Example A14, 5-[1-[4-(2-aminoethoxy)pyrimidin-2-yl]-3-(trifluoromethyl)pyrazol-4-yl]-N-[3-chloro-4-[4-(piperidine-4-carbonyl)piperazine-1-carbonyl]phenyl]-1-methyl-imidazole-2-carboxamide] | 2200 nM

Second part, the compound after the results:

IC90 | Compound
1220 nM | Cn1c(-c2cn(-c3cc(F)ncc3N)nc2C(F)(F)F)cnc1C(=O)Nc1ccc(C(=O)N2CCN(C(=O)C3CCNCC3)CC2)c(Cl)c1 [Example Z83, 5-[1-(5-amino-2-fluoro-4-pyridyl)-3-(trifluoromethyl)pyrazol-4-yl]-N-[3-chloro-4-[4-(piperidine-4-carbonyl)piperazine-1-carbonyl]phenyl]-1-methyl-imidazole-2-carboxamide]
500 nM | Cn1c(-c2cn(-c3ccc(N)cn3)nc2C(F)(F)F)cnc1C(=O)Nc1ccc(C(=O)N2CC3CN(C(=O)[C@@H]4C[C@@H](O)CN4)CC3C2)c(Cl)c1 (stereo partly drawn) [Example Z37, 5-[1-(5-amino-2-pyridyl)-3-(trifluoromethyl)pyrazol-4-yl]-N-[3-chloro-4-[5-[(2S,4R)-4-hydroxyprolyl]-1,3,3a,4,6,6a-hexahydropyrrolo[3,4-c]pyrrole-2-carbonyl]phenyl]-1-methyl-imidazole-2-carboxamide]
600 nM | Cn1c(-c2cn(-c3cnc(N)cn3)nc2C(F)(F)F)cnc1C(=O)Nc1ccc(C(=O)N2CCN(C(=O)C3CCNCC3)CC2)c(Cl)c1 [Example Z29, 5-[1-(5-aminopyrazin-2-yl)-3-(trifluoromethyl)pyrazol-4-yl]-N-[3-chloro-4-(4-isonipecotoylpiperazine-1-carbonyl)phenyl]-1-methyl-imidazole-2-carboxamide]
250 nM | Cn1c(-c2cn(-c3ccc(N)cn3)nc2C(F)(F)F)cnc1C(=O)Nc1ccc(C(=O)N2CC[C@@H](CN)C2)c(Cl)c1 [Example Z7, N-[4-[(3S)-3-(aminomethyl)pyrrolidine-1-carbonyl]-3-chloro-phenyl]-5-[1-(5-amino-2-pyridyl)-3-(trifluoromethyl)pyrazol-4-yl]-1-methyl-imidazole-2-carboxamide]
1270 nM | C[C@@H]1CN(C(=O)c2ccc(NC(=O)c3ncc(-c4cn(-c5ccc(N)cn5)nc4C(F)(F)F)n3C)cc2Cl)CCCN1 [Example Z52, 5-[1-(5-amino-2-pyridyl)-3-(trifluoromethyl)pyrazol-4-yl]-N-[3-chloro-4-[(3R)-3-methyl-1,4-diazepane-1-carbonyl]phenyl]-1-methyl-imidazole-2-carboxamide]
980 nM | Cn1c(-c2cn(-c3ccc(N)cn3)nc2C(F)(F)F)cnc1C(=O)Nc1ccc(C(=O)NCCCN)c(Cl)c1 [Example Z2, N-[4-(3-aminopropylcarbamoyl)-3-chloro-phenyl]-5-[1-(5-amino-2-pyridyl)-3-(trifluoromethyl)pyrazol-4-yl]-1-methyl-imidazole-2-carboxamide]
860 nM | Cn1c(-c2cn(-c3ccc(N)cn3)nc2C(F)(F)F)cnc1C(=O)Nc1ccc(C(=O)N[C@H]2CC[C@H](N)C2)c(Cl)c1 [Example Z16]
310 nM | COc1ccc(-n2cc(-c3cnc(C(=O)Nc4ccc(C(=O)N5CCN(C(=O)[C@@H]6CCNC[C@H]6O)CC5)c(Cl)c4)n3C)c(C(F)(F)F)n2)nc1 [Example F4, N-[3-chloro-4-[4-[(3S,4R)-3-hydroxypiperidine-4-carbonyl]piperazine-1-carbonyl]phenyl]-5-[1-(5-methoxy-2-pyridyl)-3-(trifluoromethyl)pyrazol-4-yl]-1-methyl-imidazole-2-carboxamide]
840 nM | COc1cc(-n2cc(-c3cnc(C(=O)Nc4ccc(C(=O)N5CCN(C(=O)C6CCNCC6)CC5)c(Cl)c4)n3C)c(C(F)(F)F)n2)ncn1 [Example Z49, N-[3-chloro-4-(4-isonipecotoylpiperazine-1-carbonyl)phenyl]-5-[1-(6-methoxypyrimidin-4-yl)-3-(trifluoromethyl)pyrazol-4-yl]-1-methyl-imidazole-2-carboxamide]
850 nM | Cn1c(-c2cn(-c3ccc(N)cn3)nc2C(F)(F)F)cnc1C(=O)Nc1ccc(C(=O)N2CCC(CN)CC2)c(Cl)c1 [Example Z14, N-[4-[4-(aminomethyl)piperidine-1-carbonyl]-3-chloro-phenyl]-5-[1-(5-amino-2-pyridyl)-3-(trifluoromethyl)pyrazol-4-yl]-1-methyl-imidazole-2-carboxamide]
1080 nM | COCc1c[nH]nc1-n1cc(-c2cnc(C(=O)Nc3ccc(C(=O)N4CCN(C(=O)C5CCN(C)CC5)CC4)c(Cl)c3)n2C)c(C(F)(F)F)n1 [Example Z9, N-[3-chloro-4-[4-(1-methylpiperidine-4-carbonyl)piperazine-1-carbonyl]phenyl]-5-[1-[4-(methoxymethyl)-1H-pyrazol-3-yl]-3-(trifluoromethyl)pyrazol-4-yl]-1-methyl-imidazole-2-carboxamide]

Same assay, conditions: Acinetobacter baumannii, ATCC17961, 16 h, read-out: ATCC 17961 IC90

Compound | IC90
Cn1c(-c2cn(-c3ncccn3)nc2C(F)(F)F)cnc1C(=O)Nc1ccc(C(=O)N2CCN(C(=O)[C@H]3[C@@H]4CNC[C@@H]43)CC2)c(Cl)c1 [Example F1, N-[4-[4-[(1R,5S)-3-Azabicyclo[3.1.0]hexane-6-carbonyl]piperazine-1-carbonyl]-3-chloro-phenyl]-1-methyl-5-[1-pyrimidin-2-yl-3-(trifluoromethyl)pyrazol-4-yl]imidazole-2-carboxamide] | 450 nM
